Assay results published in patent US11319303B2 (WIGEN BIOMEDICINE TECHNOLOGY (SHANGHAI) CO., LTD., priority 2017, dated 2022).
Counter-ions that a name gives are not always drawn.

molecular target: LC3B (Homo sapiens, UniProt Q9GZQ8); assay: Fluorescence Polarization (FP) Assay: displacement of FITC-labeled peptide from GST-LC3B; format: binding; settings: Fluorescence Polarization assay; GST-LC3B 180 nM, FITC-labeled peptide 18 nM, 25° C.; read-out: IC50
Method: The compounds of the present invention for regulating the autophagy-related protein LC3B were tested by Fluorescence Polarization (FP) Assay.
Fluorescence Polarization (FP) Assay Test

| IC50 [µM] | SMILES |
| --- | --- |
| 3 to 15 | O=C1CC(c2ccco2)CC(=O)C1=CNCCN1CCN(CCO)CC1 (centres unmarked) [Compound 43, 5-(furan-2-yl)-2-(((2-(4-(2-hydroxyethyl)piperazin-1-yl)ethyl)amino)methylene) cyclohexane-1,3-dione] |
| 15 to 100 | COCCOc1ccc(C2CC(=O)C(=CNCCN3CCN(CCO)CC3)C(=O)C2)cc1 (centres unmarked) [Compound 44, 2-(((2-(4-(2-hydroxyethyl)piperazin-1-yl)ethyl)amino)methylene)-5-(4-(2-methoxyethoxy)phenyl) cyclohexane-1,3-dione] |
| 15 to 100 | COCCOCCOc1ccc(C2CC(=O)C(=CNCCN3CCN(CCO)CC3)C(=O)C2)cc1 (centres unmarked) [Compound 45, 2-(((2-(4-(2-hydroxyethyl)piperazin-1-yl)ethyl)amino)methylene)-5-(4-(2-(2-methoxyethoxy)ethoxy)phenyl) cyclohexane-1,3-dione] |
| < 3 | COc1ccc(C2CC(=O)C(=CNCCN3CCN(CCO)CC3)C(=O)C2)c(OC)c1 (centres unmarked) [Compound 46, 5-(2,4-dimethoxyphenyl)-2-(((2-(4-(2-hydroxyethyl)piperazin-1-yl)ethyl)amino)methylene) cyclohexane-1,3-dione] |
| < 3 | O=C1CC(c2ccc(C(F)(F)F)cc2)CC(=O)C1=CNCCN1CCN(CCO)CC1 (centres unmarked) [Compound 48, 2-(((2-(4-(2-hydroxyethyl)piperazin-1-yl)ethyl)amino)methylene)-5-(4-(trifluoromethyl)phenyl) cyclohexane-1,3-dione] |
| < 3 | O=C1CC(c2ccc(F)cc2)CC(=O)C1=CNCCN1CCN(CCO)CC1 (centres unmarked) [Compound 49, 5-(4-fluorophenyl)-2-(((2-(4-(2-hydroxyethyl)piperazin-1-yl)ethyl)amino)methylene) cyclohexane-1,3-dione] |
| < 3 | O=C1CC(c2ccc(OC(F)(F)F)cc2)CC(=O)C1=CNCCN1CCN(CCO)CC1 (centres unmarked) [Compound 50, 2-(((2-(4-(2-hydroxyethyl)piperazin-1-yl)ethyl)amino)methylene)-5-(4-(trifluoromethoxy)phenyl) cyclohexane-1,3-dione] |
| 15 to 100 | N#Cc1ccc(C2CC(=O)C(=CNCCN3CCN(CCO)CC3)C(=O)C2)cc1 (centres unmarked) [Compound 51, 2-(((2-(4-(2-hydroxyethyl)piperazin-1-yl)ethyl)amino)methylene)-5-(4-(cyano)phenyl) cyclohexane-1,3-dione] |
| 15 to 100 | O=C1CC(c2ccccn2)CC(=O)C1=CNCCN1CCN(CCO)CC1 (centres unmarked) [Compound 53, 2-(((2-(4-(2-hydroxyethyl)piperazin-1-yl)ethyl)amino)methylene)-5-(pyridin-2-yl) cyclohexane-1,3-dione] |
| < 3 | COc1ccc(C2CC(=O)C(=CNCCN3CCN(CCO)CC3)C(=O)C2)c2ccccc12 (centres unmarked) [Compound 54, 2-(((2-(4-(2-hydroxyethyl)piperazin-1-yl)ethyl)amino)methylene)-5-(4-methoxy-naphthalen-1-yl)cyclohexane-1,3-dione] |
| 15 to 100 | Cn1cccc1C1CC(=O)C(=CNCCN2CCN(CCO)CC2)C(=O)C1 (centres unmarked) [Compound 55, 2-(((2-(4-(2-hydroxyethyl)piperazin-1-yl)ethyl)amino)methylene)-5-(1-methyl-1H-pyrrol-2-yl)cyclohexane-1,3-dione] |
| 3 to 15 | O=C1CC(c2cccc3c2OCCO3)CC(=O)C1=CNCCN1CCN(CCO)CC1 (centres unmarked) [Compound 56, 5-(2,3-dihydrobenzo [b][1,4]dioxin-5-yl)-2-(((2-(4-(2-hydroxyethyl)piperazin-1-yl)ethyl)amino)methylene) cyclohexane-1,3-dione] |
| 15 to 100 | O=C1CC(c2nccs2)CC(=O)C1=CNCCN1CCN(CCO)CC1 (centres unmarked) [Compound 57, 2-(((2-(4-(2-hydroxyethyl)piperazin-1-yl)ethyl)amino)methylene)-5-(thiazol-2-yl) cyclohexane-1,3-dione] |
| 100 to 1000 | O=C1CC(c2c[nH]cn2)CC(=O)C1=CNCCN1CCN(CCO)CC1 (centres unmarked) [Compound 59, 2-(((2-(4-(2-hydroxyethyl)piperazin-1-yl)ethyl)amino)methylene)-5-(1H-imidazol-4-yl) cyclohexane-1,3-dione] |
| < 3 | O=C1CC(c2c3ccccc3cc3ccccc23)CC(=O)C1=CNCCN1CCN(CCO)CC1 (centres unmarked) [Compound 61, 5-(anthracen-9-yl)-2-(((2-(4-(2-hydroxyethyl)piperazin-1-yl)ethyl)amino)methylene) cyclohexane-1,3-dione] |
| 3 to 15 | O=C1CC(c2ccnc3ccccc23)CC(=O)C1=CNCCN1CCN(CCO)CC1 (centres unmarked) [Compound 62, 2-(((2-(4-(2-hydroxyethyl)piperazin-1-yl)ethyl)amino)methylene)-5-(quinolin-4-yl) cyclohexane-1,3-dione] |
| 15 to 100 | CCC(CC)C1CC(=O)C(=CNCCN2CCN(CCO)CC2)C(=O)C1 (centres unmarked) [Compound 63, 2-(((2-(4-(2-hydroxyethyl)piperazin-1-yl)ethyl)amino)methylene)-5-(pentan-3-yl) cyclohexane-1,3-dione] |
| 100 to 1000 | O=C1CC(C2CCOCC2)CC(=O)C1=CNCCN1CCN(CCO)CC1 (centres unmarked) [Compound 64, 2-(((2-(4-(2-hydroxyethyl)piperazin-1-yl)ethyl)amino)methylene)-5-(tetrahydro-2H-pyran-4-yl)cyclohexane-1,3-dione] |

| IC50 [µM] | SMILES |
| --- | --- |
| 100 to 1000 | CS(=O)(=O)c1ccc(C2CC(=O)C(=CNCCN3CCN(CCO)CC3)C(=O)C2)cc1 (centres unmarked) [Compound 65, 2-(((2-(4-(2-hydroxyethyl)piperazin-1-yl)ethyl)amino)methylene)-5-(4-(methylsulfonyl)phenyl) cyclohexane-1,3-dione] |
| < 3 | O=C1CC(c2csc3ccccc23)CC(=O)C1=CNCCN1CCN(CCO)CC1 (centres unmarked) [Compound 66, 5-(benzo[b]thiophen-3-yl)-2-(((2-(4-(2-hydroxyethyl)piperazin-1-yl)ethyl)amino)methylene) cyclohexane-1,3-dione] |
| 100 to 1000 | O=C1CC(C2CC2)CC(=O)C1=CNCCN1CCN(CCO)CC1 (centres unmarked) [Compound 67, 5-cyclopropyl-2-(((2-(4-(2-hydroxyethyl)piperazin-1-yl)ethyl)amino)methylene) cyclohexane-1,3-dione] |
| < 3 | O=C1CC(c2cccc3[nH]ccc23)CC(=O)C1=CNCCN1CCN(CCO)CC1 (centres unmarked) [Compound 68, 2-(((2-(4-(2-hydroxyethyl)piperazin-1-yl)ethyl)amino)methylene)-5-(1H-indol-4-yl) cyclohexane-1,3-dione] |
| 15 to 100 | CC(c1ccccc1)C1CC(=O)C(=CNCCN2CCN(CCO)CC2)C(=O)C1 (centres unmarked) [Compound 69, 2-(((2-(4-(2-hydroxyethyl)piperazin-1-yl)ethyl)amino)methylene)-5-(1-phenylethyl) cyclohexane-1,3-dione] |
| 100 to 1000 | O=C1CC(C2CCNCC2)CC(=O)C1=CNCCN1CCN(CCO)CC1 (centres unmarked) [Compound 70, 2-(((2-(4-(2-hydroxyethyl)piperazin-1-yl)ethyl)amino)methylene)-5-(piperidin-4-yl) cyclohexane-1,3-dione HCl salt] |
| 15 to 100 | O=C1CC(c2ccc(OCCOc3ccncc3)cc2)CC(=O)C1=CNCCN1CCN(CCO)CC1 (centres unmarked) [Compound 71, 2-(((2-(4-(2-hydroxyethyl)piperazin-1-yl)ethyl)amino)methylene)-5-(4-(2-(pyridin-4-yloxy)ethoxy)phenyl) cyclohexane-1,3-dione] |
| < 3 | O=C1CC(c2ccc(-c3ccncc3)s2)CC(=O)C1=CNCCN1CCN(CCO)CC1 (centres unmarked) [Compound 72, 2-(((2-(4-(2-hydroxyethyl)piperazin-1-yl)ethyl)amino)methylene)-5-(5-(pyridin-4-yl)thiophen-2-yl)cyclohexane-1,3-dione] |
| < 3 | O=C1CC(c2ccc(-c3ccncc3)cc2)CC(=O)C1=CNCCN1CCN(CCO)CC1 (centres unmarked) [Compound 73, 2-(((2-(4-(2-hydroxyethyl)piperazin-1-yl)ethyl)amino)methylene)-5-(4-(pyridin-4-yl)phenyl) cyclohexane-1,3-dione] |
| < 3 | CN(C)C=Nc1nc2c(C3CC(=O)C(=CNCCN4CCN(CCO)CC4)C(=O)C3)cccc2s1 (centres unmarked) [Compound 74, N′-(4-(4-(((2-(4-(2-hydroxyethyl)piperazin-1-yl)ethyl)amino)methylene)-3,5-dioxocyclohexyl)benzo[d]thiazol-2-yl)-N,N-dimethyl-formimidamide] |
| 3 to 15 | O=C1CC(c2cccc(Oc3ccncc3)c2)CC(=O)C1=CNCCN1CCN(CCO)CC1 (centres unmarked) [Compound 75, 2-(((2-(4-(2-hydroxyethyl)piperazin-1-yl)ethyl)amino)methylene)-5-(3-(pyridin-4-yloxy)phenyl) cyclohexane-1,3-dione] |
| 15 to 100 | CCOc1ncnc2c1ncn2-c1ccc(C2CC(=O)C(=CNCCN3CCN(CCO)CC3)C(=O)C2)cc1 (centres unmarked) [Compound 76, 5-(4-(6-ethoxy-9H-purin-9-yl)phenyl)-2-(((2-(4-(2-hydroxyethyl)piperazin-1-yl)ethyl)amino)methylene) cyclohexane-1,3-dione] |
| 15 to 100 | O=C1CC(c2ccc(C(=O)N3CCOCC3)cc2)CC(=O)C1=CNCCN1CCN(CCO)CC1 (centres unmarked) [Compound 77, 2-(((2-(4-(2-hydroxyethyl)piperazin-1-yl)ethyl)amino)methylene)-5-(4-(morpholine-4-carbonyl)phenyl) cyclohexane-1,3-dione] |
| 15 to 100 | O=C1CC([C@]23C[C@H]4C[C@H](C[C@H](C4)C2)C3)CC(=O)C1=CNCCN1CCN(CCO)CC1 (some centres unmarked) [Compound 78] |
| 100 to 1000 | CN1CCN(c2ccc(C3CC(=O)C(=CNCCN4CCN(CCO)CC4)C(=O)C3)cn2)CC1 (centres unmarked) [Compound 79, 2-(((2-(4-(2-hydroxyethyl)piperazin-1-yl)ethyl)amino)methylene)-5-(6-(4-methylpiperazin-1-yl)pyridin-3-yl) cyclohexane-1,3-dione] |
| 15 to 100 | COCCOc1cc(C2CC(=O)C(=CNCCN3CCN(CCO)CC3)C(=O)C2)ccc1OC (centres unmarked) [Compound 80, 2-(((2-(4-(2-hydroxyethyl)piperazin-1-yl)ethyl)amino)methylene)-5-(4-methoxy-3-(2-methoxyethoxy)phenyl) cyclohexane-1,3-dione] |
| 15 to 100 | O=C1CC(c2ccc(-c3nccs3)cc2)CC(=O)C1=CNCCN1CCN(CCO)CC1 (centres unmarked) [Compound 81, 2-(((2-(4-(2-hydroxyethyl)piperazin-1-yl)ethyl)amino)methylene)-5-(4-(thiazol-2-yl)phenyl) cyclohexane-1,3-dione] |
